Patent US20230123104A1, “CRYSTAL OF TRICYCLIC COMPOUND ACTING ON CRBN PROTEIN AND PREPARATION METHOD THEREFOR” (CHIA TAI TIANQING PHARMACEUTICAL GROUP CO., LTD., priority 2020, published 2023)

What was measured:
[1] = system: multiple myeloma cell line NCI-H929; experiment: Antiproliferative effect, CellTiter-Glo cell viability assay, NCI-H929; format: cell-based
Experimental: (§1) In this experiment, the inhibition of cell proliferation in multiple myeloma cell lines MM.1S and NCI-H929 by the compound of formula (I) was detected.
(§2) The tumor cell lines were cultured in an incubator at 37° C. with 5% CO2 under the culture conditions described above. Periodical passaging was performed, and cells growing at log phase were used for plating.
(§3) (1) Cells were stained with trypan blue and viable cells were counted.
(§4) (2) The cell concentration was adjusted to an appropriate level.
(§5) (3) 90 μL of cell suspension was added to each well in the culture plate and cell-free medium was added to the blank control wells according to the table above.
(§6) (4) The culture plate was incubated overnight in an incubator at 37° C. with 5% CO2 and 100% relative humidity. […]
(§7) The following procedure was performed according to the instructions of Promega CellTiter-Glo luminescence cell viability assay kit (Promega-G7573). […]
(§8) (8) The culture plate was placed at room temperature for 10 min to stabilize the luminescence signals.
(§9) (9) The luminescence signals were detected on 2104 EnVision plate reader.
(§10) Inhibition rates of the compound of formula (I) at different concentrations were calculated in Excel, followed by plotting the inhibition curves and calculating relevant parameters including minimum inhibition rate, maximum inhibition rate and IC50 using GraphPad Prism software.

[2] = system: multiple myeloma cell line MM.1S; experiment: Antiproliferative effect, CellTiter-Glo cell viability assay, MM.1S; format: cell-based, human
Experimental: as §1, §2, §3, §4, §5, §6, §7, §8, §9, §10

[3] = Pharmacokinetic evaluation in mice; format: in vivo, C57BL male mice
Text: (§11) The test animals in the study were C57BL male mice, and the LC/MS/MS method was used to quantitatively determine the drug concentration in the plasma of the mice at different time points after intravenous injection or oral administration of the test compound, thus evaluating the pharmacokinetic characteristics of the compound of formula (I) in the mice.
C57Balb/C (C57) mice (male, 20-30 g, 7-10 weeks old, Beijing Vital River or Shanghai SLAC).
Clear or suspended solution of the compound of formula (I) was injected into C57 mice (fasted overnight) via the tail vein or administered intragastrically to C57 mice (fasted overnight). For intravenous injection, […] of blood was each collected by jugular vein puncture at 0 h (before injection) and 0.0833 h, 0.25 h, 0.5 h, 1 h, 2 h, 4 h, 6 h, 8 h and 24 h (after injection), and then placed in an anticoagulation tube added with EDTA-K2 (Jiangsu KANGJIAN Medical Apparatus Co., Ltd.), and the mixture was thoroughly vortex-mixed at 4° C. and centrifuged at 13000 rpm for 10 min; for intragastric administration, blood was collected by jugular vein puncture at 0 h (before administration) and 0.5 h, 1 h, 2 h, 4 h, 6 h, 8 h and 24 h (after administration), and then placed in an anticoagulation tube added with EDTA-K2 (Jiangsu KANGJIAN Medical Apparatus Co., Ltd.), and the mixture was thoroughly vortex-mixed and centrifuged at 13000 rpm for 10 min. The plasma concentration was measured by LC-MS/MS, and the relevant pharmacokinetic parameters were calculated using WinNonlin™ Version 6.3 (Pharsight, Mountain View, Calif.), a pharmacokinetic software, with a non-compartmental model linear-log trapezoidal method.

[4] = Pharmacokinetic evaluation in rats; format: in vivo, SD male rats
Text: as §11, with “SD” for “C57BL”, “rats,” for “mice,”, “rats” for “mice”, “compound of formula (I),” for “test compound,”, “rats.” for “mice.”
Sprague Dawley (SD) rats (male, 200-300 g, 7-10 weeks old, Beijing Vital River or Shanghai SLAC).
Clear solution of the compound of formula (I) was injected into SD rats (fasted overnight) via the tail vein or administered intragastrically to SD rats (fasted overnight). For intravenous injection, 200 μL of blood was each collected by jugular vein puncture at 0 h (before injection) and 0.0833 h, 0.25 h, 0.5 h, 1 h, 2 h, 4 h, 6 h, 8 h and 24 h (after injection), and then placed in an anticoagulation tube added with EDTA-K2 (Jiangsu KANGJIAN Medical Apparatus Co., Ltd.), and the mixture was thoroughly vortex-mixed at 4° C. and centrifuged at 13000 rpm for 10 min; for intragastric administration, blood was collected by jugular vein puncture at 0 h (before administration) and 0.5 h, 1 h, 2 h, 4 h, 6 h, 8 h and 24 h (after administration), and then placed in an anticoagulation tube added with EDTA-K2 (Jiangsu KANGJIAN Medical Apparatus Co., Ltd), and the mixture was thoroughly vortex-mixed and centrifuged at 13000 rpm for 10 min. The plasma concentration was measured by LC-MS/MS, and the relevant pharmacokinetic parameters were calculated using WinNonlin™ Version 6.3 (Pharsight, Mountain View, Calif.), a pharmacokinetic software, with a non-compartmental model linear-log trapezoidal method.

[5] = system: human myeloma MM.1S cells; experiment: In vivo pharmacodynamic study in subcutaneous xenograft tumor CB-17 SCID model; set-up: species or system CB-17 SCID mice; conditions: 5 mg/kg oral, twice daily
Experimental: Cell culturing: human multiple myeloma cells MM.1S (ATCC® CRL-2974™) were cultured in vitro, in a semi-suspension manner, with an ATCC-formulated RPMI-1640 medium containing 10% fetal calf serum, 100 U/mL penicillin and 100 μg/mL streptomycin in an incubator at 37° C. with 5% CO2. Passages were performed twice a week. At a required number, the cells were taken, counted and inoculated.
Animals: CB-17 SCID mice, female, 6-8 weeks old, weighing 18-20 g.
0.2 mL (5×10^6 cells) of MM.1S cells (along with matrigel in a volume ratio of 1:1) was subcutaneously inoculated on the right back of each mouse, and the mice were divided into groups for administration after the mean tumor volume was approximately 130 mm^3. Seven days constitute an administration cycle, twice daily with a 12 h interval, and the compound of formula (I) was orally administered for a total of four cycles. The compound of formula (I) was administered at a dose of 5 mg/kg, tumor volume was measured twice weekly with a two-dimensional caliper, and the volume was measured in cubic millimeters and calculated according to the following formula: V=0.5a×b^2, where a and b are the long and short diameters, respectively, of the tumor. Anti-tumor efficacy was determined by dividing the mean tumor increase volume of animals treated with the compound of formula (I) by the mean tumor increase volume of untreated animals.

[6] = intravenous injection (2 mg/kg)
[7] = intragastric administration (10 mg/kg)

O=C1CCC(c2noc3ccc4[nH]ccc4c23)C(=O)N1 (centres unmarked) [Compound of formula (I)]
IC50 ([1]; Homo sapiens, 120 h, NCI-H929, co-incubated 5 days, CellTiter-Glo): 0.5 nM
inhibitory effect on cell proliferation (conclusion) ([1]; NCI-H929): excellent inhibitory effect
inhibitory effect on cell proliferation (conclusion) [2]: excellent inhibitory effect
IC50 ([2]; Homo sapiens, MM1.S, 120 h, co-incubated 5 days, CellTiter-Glo): 0.4 nM
Area under plasma concentration-time curve (0-inf) [3, 6]: 5.34 µM·h
Area under plasma concentration-time curve (0-inf) ([3]; oral administration (10 mg/kg)): 12.29 µM·h
Bioavailability F ([3]; oral administration (10 mg/kg)): 46.1%
Peak concentration ([3]; oral administration (10 mg/kg)): 10.52 µM
Time to peak ([3]; oral administration (10 mg/kg)): 0.25 h
Area under plasma concentration-time curve (0-inf) [4, 7]: 26.34 µM·h
Bioavailability F [4, 7]: 66.5%
Peak concentration [4, 7]: 12.75 µM
Time to peak [4, 7]: 0.50 h
Area under plasma concentration-time curve (0-inf) [4, 6]: 7.92 µM·h
Tumor volume (Day 0) ([5]; Day 0): 131 ± 12 mm^3
TGI (Day 24) ([5]; Day 24): 105%
Tumor volume (Day 24) ([5]; Day 24): 14 ± 5 mm^3
